Measurements as given in US8394786B2, “Quinazoline derivatives” (Janssen Pharmaceutica N.V., priority 2003, dated 2013).

Tests used:
SKOV3 cells = assay: Serum starved proliferation assay on the ovarian carcinoma SKOV3 cells (C3); format: cell-based; details: EGF stimulated (100 ng/ml, 72 hours, serum free) or 72 hours with compounds, MTT cell viability assay; for IC50: Homo sapiens, SK-OV-3, 72 h, read-out: SKOV3 cell (C3): pIC50 (converted)
Experimental: The ovarian carcinoma cell line (SKOV3) was used in an epidermal growth factor stimulated cell proliferation assay, to assess the inhibitory effect of the compounds on EGF in whole cells.
In a first step the SKOV3 cells were incubated for 24 hours in the presence of 10% FCS serum. In the second step the cells were incubated with the compounds to be tested in a serum free condition (37° C. and 5% (v/v) CO2) and subsequently stimulated for 72 hours with EGF at a final concentration of 100 ng/ml. The effect of the compounds on the EGF stimulation was finally assessed in a standard MTT cell viability assay.
Alternatively, the SKOV3 cells were incubated for 24 hours in the presence of 10% FCS serum. In the second step the cells were incubated for 72 hours with the compounds to be tested and the effect of the compounds on cell proliferation was finally assessed in a standard MTT cell viability assay.

EGFR = EGFR (Homo sapiens, UniProt P00533); assay: In vitro inhibition of EGFR, Flash Plate or glass-fiber filter technology (C2); format: biochemical; parameters: 0.5 μg EGFR-kinase domain/well; details: EGFR-kinase domain, 5.0 μM unlabeled ATP; for IC50: read-out: Kinase activity.(C2): pIC50 (converted)
Experimental: The in vitro inhibition of EGFR was assessed using either the Flash Plate technology or the glass-fiber filter technology as described by Davies, S. P. et al., Biochem J. (2000), 351; p. 95-105. The Flash Plate technology is generally described by B. A. Brown et al. in High Throughput Screening (1997), p. 317-328. Editor(s): Devlin, John P. Publisher: Dekker, New York, N.Y.
In the Flash Plate EGFR kinase reaction assay, a kinase substrate consisting of biotinylated poly(L-glutamic acid-L-tyrosine) (poly(GT)biotin), is incubated with the aforementioned protein in the presence of (^33P) radiolabeled ATP. (^33P) phosphorylation of the substrate is subsequently measured as light energy emitted using a streptavidin-coated Flash Plate (PerkinElmer Life Sciences) by trapping and quantifying the binding of the biotin tagged and radiolabeled substrate.
The EGFR kinase reaction is performed at 30° C. for 60 minutes in a 96-well microtiter FlashPlate (PerkinElmer Life Sciences). For each of the tested compounds a full dose response 1·10^−6M to 1·10^−10M has been performed. IRESSA° and Tarceva™ (erlotinib) were used as reference compounds. The 100 μl reaction volume contains 54.5 mM TrisHCl pH 8.0, 10 mM MgCl2, 100 μM Na3VO4, 5.0 μM unlabeled ATP, 1 mM DTT, 0.009% BSA, 0.8 μCi AT^33P, 0.35 μg/well poly(GT)biotin and 0.5 μg EGFR-kinase domain/well.
The reaction is stopped by aspirating the reaction mixture and washing the plate 3× with 200 μl wash/stop buffer (PBS+100 mM EDTA). After the final wash step 200 μl of wash/stop buffer was added to each well and the amount of phosphorylated (^33P) Poly(GT)biotin determined by counting (30 sec/well) in a microtiterplate scintillation counter.
In the glass-fiber filter technology EGFR kinase reaction assay, a kinase substrate consisting of poly(L-glutamic acid-L-tyrosine) (poly(GT)), is incubated with the aforementioned protein in the presence of (^33P) radiolabeled ATP. (^33P) Phosporylation of the substrate is subsequently measured as radioactivity bound on a glassfiber-filter.
The EGFR kinase reaction is performed at 25° C. for 10 minutes in a 96-well microtiterplate. For each of the tested compounds a full dose response 1·10^−6M to 1·10^−10M has been performed. IRESSA° and Tarceva™ (erlotinib) were used as reference compounds. The 25 μl reaction volume contains 60 mM TrisHCl pH 7.5, 3 mM MgCl2, 3 mM Mn Cl2, 3 μM Na3VO4, 50 μg/ml PEG20000, 5.0 μM unlabeled ATP, 1 mM DTT, 0.1 μCi AT^33P, 62.5 ng/well poly(GT) and 0.5 μg EGFR-kinase domain/well.
The reaction is stopped by adding 5 μl of a 3% phosphoric acid solution. 10 μl of the reaction mixture is then spotted onto a Filtermat A filter (Wallac) and washed 3 times for 5 min. in 75 mM phosphoric acid and 1 time for 5 min. in methanol prior to drying and quantification on the Typhoon (Amersham) using a LE phosphorage storage screen.

IC50 (SKOV3 cells) [nM] | IC50 (EGFR) [nM] | SKOV3 cell (C3): pIC50 (SKOV3 cells) | Kinase activity.(C2): pIC50 (EGFR) | Molecule
501 | 100 | – | – | COc1cc2ncnc3c2cc1OCCNC(=O)C(CC(C)C)NC(=O)Cc1ccc(Cl)cc1N3 (stereo not drawn) [Compound 67, 4,6-ethanediylidene-8H-pyrimido[4,5-b][6,1,9,12]benzoxatriazacyclohexadecine-11,14-dione, 18-chloro-9,10,12,13,15,20-hexahydro-21-methoxy-12-(2-methylpropyl)-]
7940 | 631 | – | – | COc1cc2ncnc3c2cc1OCCN(C(=O)CNC(CO)CO)CC(=O)NCCCc1ccc(Cl)cc1N3 [Compound 44, 4,6-ethanediylidenepyrimido[4,5-b][6,1,9,12]benzoxatriazacycloheptadecin-12(13H)-one, 19-chloro-8,9,10,11,14,15,16,21-octahydro-10-[[[2-hydroxy-1-(hydroxymethyl)ethyl]amino]acetyl]-22-methoxy-]
2000 | 126 | – | – | COCCN1CCOc2cc3c(ncnc3cc2OC)Nc2cc(Cl)ccc2CC(=O)NCC1=O [Compound 63, 4,6-ethanediylidene-8H-pyrimido[4,5-b][6,1,9,12]benzoxatriazacyclohexadecine-11,14-dione, 18-chloro-9,10,12,13,15,20-hexahydro-21-methoxy-10-(2-methoxyethyl)-]
631 | 63.1 | – | – | COc1cc2ncnc3c2cc1OCC(=O)NCC(=O)NCCc1ccc(Cl)cc1N3 [Compound 160, 4,6-ethanediylidene-8H-pyrimido[4,5-b][6,1,9,12]benzoxatriazacyclohexadecine-9,12-dione, 18-chloro-10,11,13,14,15,20-hexahydro-21-methoxy-]
158 | 501 | – | – | COc1cc2ncnc3c2cc1OCC(=O)N(C)CC(=O)NCCc1ccc(Cl)cc1N3 [Compound 164, 4,6-ethanediylidene-8H-pyrimido[4,5-b][6,1,9,12]benzoxatriazacyclohexadecine-9,12-dione, 18-chloro-10,11,13,14,15,20-hexahydro-21-methoxy-10-methyl-]
5010 | 398 | – | – | COc1cc2ncnc3c2cc1OCCN(CCN1CCOCC1)C(=O)CNC(=O)Cc1ccc(Cl)cc1N3 [Compound 62, 4,6-ethanediylidene-8H-pyrimido[4,5-b][6,1,9,12]benzoxatriazacyclohexadecine-11,14-dione, 18-chloro-9,10,12,13,15,20-hexahydro-21-methoxy-10-[2-(4-morpholinyl)ethyl]-]
126 | 25.1 | – | – | COc1cc2ncnc3c2cc1OCCCC(=O)NC(CO)C(=O)NCc1ccc(Cl)cc1N3 (stereo not drawn) [Compound 130, 4,6-ethanediylidenepyrimido[4,5-b][6,1,11,14]benzoxatriazacycloheptadecine-11,14(8H,15H)-dione, 19-chloro-9,10,12,13,16,21-hexahydro-13-(hydroxymethyl)-22-methoxy-]
7940 | 1580 | – | – | COc1cc2ncnc3c2cc1OCC(=O)N1CC(O)CC1C(=O)NCc1ccc(Cl)cc1N3 (stereo not drawn) [Compound 133, 9,11-ethanediylidenepyrimido[4,5-b]pyrrolo[1,2-i][6,1,9,12]benzoxatriazacyclopentadecine-14,19(5H,13H)-dione, 3-chloro-16,17,18,18a,20,21-hexahydro-17-hydroxy-22-methoxy-]
– | – | 5.1 | 7.7 | 4,6-ethenopyrimido[4,5-b][6,1,9,14]benzoxatriazacycloheptadecine-9,14(8H,15H)-dione, 19-chloro-10,11,12,13,16,21-hexahydro-22-methoxy- [Compound 150]
2 | 15.8 | – | – | COc1cc2ncnc3c2cc1OCCCNC(=O)CNC(=O)Cc1ccc(Cl)cc1N3 [Compound 60, 4,6-ethanediylidenepyrimido[4,5-b][6,1,10,13]benzoxatriazacycloheptadecine-12,15-dione, 19-chloro-8,9,10,11,13,14,16,21-octahydro-22-methoxy-]
– | – | 7.3 | 7.2 | 4,6-ethanediylidene-12H-pyrimido[4,5-b]pyrrolo[2,1-1][6,1,10,13]benzoxatriazacyclohexadecin-12-one, 20-chloro-19-fluoro-8,9,10,11,12a,13,14,15,17,22-decahydro-23-methoxy- [Compound 103]
3980 | 1580 | – | – | COc1cc2ncnc3c2cc1OCC(=O)NC(CO)C(=O)NCc1ccc(Cl)cc1N3 (stereo not drawn) [Compound 129, 4,6-ethanediylidenepyrimido[4,5-b][6,1,9,12]benzoxatriazacyclopentadecine-9,12(8H,13H)-dione, 17-chloro-10,11,14,19-tetrahydro-11-(hydroxymethyl)-20-methoxy-]
1580 | 126 | – | – | COc1cc2ncnc3c2cc1OCCN(C(=O)CN(C)CCN(C)C)CC(=O)NCCCc1ccc(Cl)cc1N3 [Compound 47, 4,6-ethanediylidenepyrimido[4,5-b][6,1,9,12]benzoxatriazacycloheptadecin-12(13H)-one, 19-chloro-10-[[[2-(dimethylamino)ethyl]methylamino]acetyl]-8,9,10,11,14,15,16,21-octahydro-22-methoxy-]
10000 | 398 | – | – | COc1cc2ncnc3c2cc1OCC(=O)NC(Cc1ccccc1)C(=O)NCc1ccc(Cl)cc1N3 (stereo not drawn) [Compound 122, 4,6-ethanediylidenepyrimido[4,5-b][6,1,9,12]benzoxatriazacyclopentadecine-9,12(8H,13H)-dione, 17-chloro-10,11,14,19-tetrahydro-20-methoxy-11-(phenylmethyl)-]
398 | 15.8 | – | – | COc1cc2ncnc3c2cc1OCCCCCNCc1cc(F)c(Br)cc1N3 [Compound 61, 4,6-ethenopyrimido[4,5-b][6,1,12]benzoxadiazacyclopentadecine, 17-bromo-16-fluoro-8,9,10,11,12,13,14,19-octahydro-20-methoxy-]
10000 | 31.6 | – | – | COc1cc2ncnc3c2cc1OCC(=O)NCCC(=O)NCc1ccc(Cl)cc1N3 [Compound 152, 4,6-etheno-8H-pyrimido[4,5-b][6,1,9,13]benzoxatriazacyclohexadecine-9,13(10H,14H)-dione, 18-chloro-11,12,15,20-tetrahydro-21-methoxy-]
1580 | 794 | – | – | COc1cc2ncnc3c2cc1OCC(=O)NC(CC(C)C)C(=O)NCCc1ccc(Cl)cc1N3 (stereo not drawn) [Compound 141, 4,6-ethanediylidene-8H-pyrimido[4,5-b][6,1,9,12]benzoxatriazacyclohexadecine-9,12-dione, 18-chloro-10,11,13,14,15,20-hexahydro-21-methoxy-11-(2-methylpropyl)-]
100 | 79.4 | – | – | COc1cc2ncnc3c2cc1OCCN(C)CC(=O)NCCCc1ccc(Cl)cc1N3 [Compound 52, 4,6-ethanediylidenepyrimido[4,5-b][6,1,9,12]benzoxatriazacycloheptadecin-12(13H)-one, 19-chloro-8,9,10,11,14,15,16,21-octahydro-22-methoxy-10-methyl-]
